# Experimental data as given in patent US20070254882A1, “Sulfamide Derivatives and Pharmaceutical Composition for Upregulation of Lipid Metabolism Comprising Same” (CRYSTAL GENOMICS, INC., priority 2004, published 2007).
# Biological target: T1, human PPAR α (Homo sapiens, UniProt Q07869)
# T1 construct: expressed in transfected cells; host or cells: HepG2 (ATCC HB-8065) or 293T cells (ATCC CRL-1573)
# T1 sequence (Q07869 239-466 limits assumed): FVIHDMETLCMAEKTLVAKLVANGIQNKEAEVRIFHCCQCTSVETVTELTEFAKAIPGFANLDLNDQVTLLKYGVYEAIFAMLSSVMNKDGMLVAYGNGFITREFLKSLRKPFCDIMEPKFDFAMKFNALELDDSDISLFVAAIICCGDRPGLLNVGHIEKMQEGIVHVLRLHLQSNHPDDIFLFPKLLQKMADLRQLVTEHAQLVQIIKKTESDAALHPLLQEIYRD
# Test: Exogeneous PPAR α agonist assay (GAL4 DNA binding domain/PPAR α ligand binding domain, luciferase) in 293T cells
# Type: cell-based
# Design: scale not given here
# Details: 25 μM compound, 48 hours, luciferase activity increase relative to the control
# Description: (§1) Step 1) Exogeneous PPAR α Agonist Assay
# (§2) Cross-activation assay of the compounds of Examples 1 to 134 against human PPAR α was carried out using a DNA construct of PPAR α including its ligand binding domain and GAL4 DNA binding domain (Sher et al., Biochemistry 32, 5598-5604, 1993) to analyze whether any of the compounds binds to the ligand binding domain of PPAR α expressed by the construct to affect the PPAR α activity. When the GAL4 DNA binding domainm which is fused with PPAR α ligand binding domain, binds to UAS (upstream activation sequence) of firefly-luciferase, the luciferase is expressed. Therefore, the effect of each of the compounds of Examples on PPAR α activation can be evaluated by analyzing the activation of luciferase.
# (§3) Specifically, 2×10^4 of HepG2 (ATCC HB-8065) or 293T cells (ATCC CRL-1573) were aliquotted into each well of a 96-well plate and cultured for overnight at 37° C. in a CO2 incubator (culture condition: DMEM, 10% FBS and 1% antibiotics).
# (§4) The transformation of PPAR α DNA was traced as follows. First, a mixture of the following ingredients in amounts per well; Solution A (Promega) containing 50 ng of full length human PPAR α DNA, 50 ng of firefly-luciferase construct, 5 ng of Renilla-luciferase construct, 1.0 μl of PLUS™ reagent, and 8.3 μl of a serum-free medium containing no antibiotics; was prepared and kept at room temperature for 15 min. Solution B, which contained 0.5 μl of Lipofectamine™ reagent and 9.5 μl of serum-free medium without antibiotics per well, and Solution C, which contained 50 μl of serum-free medium per well), were prepared. Solutions A, B and C were mixed together to prepare lipofectamin-DNA complex, and the mixture was kept at room temperature for 15 min. Single layer of cells on each well of a 96-well plate were washed with serum-free DMEM, 70 μl of lipofectamine-DNA complex prepared above was added thereto, the plate was incubated at 37° C. in a 5% CO2 incubator for 3 hours to transform the cells, and […] of a diluted solution of each of the compounds of Examples 1 to 134 per well was added to each well to a final concentration 25 μM, and incubated at 37° C. in a CO2 incubator for 48 hours. Then, the medium was removed, 50 μl of passive lysis buffer (Promega) was added thereto, and the plate was shook at room temperature for 20 min to lysis cells. 40 μl of Luciferase Assay reagent of Dual Luciferase Kit […] per 20 μl of cell lysis buffer was added to the plate, followed by reacting at 20° C. for 8 seconds, and 40 μl of Stop & Glo reagent (Promega) as a stop solution was added thereto to quench the reaction. The luminescence intensities of F-luciferase and R-luciferase were measured with MicroLumat Plus (Berthord Technology).
row,Activity at 25 μM Step 1 293T cell,Structure (SMILES)
1,3,"Cc1ccc(-c2nc(COc3cccc(CN([C@H](C(=O)O)C(C)C)S(=O)(=O)N(C)C)c3)c(C)o2)cc1 [Example 125, (S)-3-methyl-2-[N—(N,N-dimethylamino)sulfonyl-N-[3-[(5-methyl-2-p-tolyloxazol-4-yl)methoxy]benzyl]amino]butyric acid]"
2,2,"Cc1oc(-c2ccc(C(F)(F)F)cc2)nc1CCOc1cccc(CN(CC(=O)O)S(=O)(=O)N(C)c2cccc(F)c2)c1 [Example 82, [N—[N-(3-fluorophenyl)-N-methylamino]sulfonyl-N-[3-[2-[2-(4-trifluoromethylphenyl)-5-methyloxazol-4-yl]ethoxy]benzyl]amino]acetic acid]"
3,4,"CCN(CC)S(=O)(=O)N(CC(=O)O)Cc1ccc(OCCc2nc(-c3ccc(C)cc3)oc2C)cc1 [Example 101, [N—(N,N-diethylamino)sulfonyl-N-[4-[2-[2-(4-methylphenyl)-5-methyloxazol-4-yl]ethoxy]benzyl]amino]acetic acid]"
4,2,"CCN(CC)S(=O)(=O)N(CC(=O)O)Cc1cccc(OCCc2nc(-c3ccc(C(F)(F)F)cc3)oc2C)c1 [Example 67, [N—(N,N-diethylamino)sulfonyl-N-[3-[2-[2-(4-trifluoromethylphenyl)-5-methyloxazol-4-yl]ethoxy]benzyl]amino]acetic acid]"
5,2,"Cc1ccc(-c2nc(COc3ccc(CN(CC(=O)O)S(=O)(=O)N(C)c4ccc(Cl)cc4)cc3)c(C)o2)cc1 [Example 50, [N—[[N-methyl-N-(4-chlorophenyl)]amino]sulfonyl-N-[4-[[2-(4-methylphenyl)-5-methyloxazol-4-yl]methoxy]benzyl]amino]acetic acid]"
6,1,"Cc1oc(-c2ccc(C(F)(F)F)cc2)nc1COc1cccc(CN(CC(=O)O)S(=O)(=O)N2CCN(C)CC2)c1 [Example 27, [N-(4-methyl-1-piperazinyl)sulfonyl-N-[3-[[2-(4-trifluoromethylphenyl)-5-methyloxazol-4-yl]methoxy]benzyl]amino]acetic acid]"
7,2,"Cc1oc(-c2ccccc2)nc1CCOc1ccc(CN(CC(=O)O)S(=O)(=O)N2CCCc3ccccc32)cc1 [Example 120, [N-(1,2,3,4-tetrahydroquinolinyl)sulfonyl-N-[4-[2-(2-phenyl-5-methyloxazol-4-yl)ethoxy]benzyl]amino]acetic acid]"
8,2,"Cc1ccc(-c2nc(CCOc3cccc(CN(CC(=O)O)S(=O)(=O)N4CCOCC4)c3)c(C)o2)cc1 [Example 86, [N-(morpholinyl)sulfonyl-N-[3-[2-[2-(4-methylphenyl)-5-methyloxazol-4-yl]ethoxy]benzyl]amino]acetic acid]"
9,2,Cc1oc(-c2cccs2)nc1CCOc1ccc(CN(CC(=O)O)S(=O)(=O)N(C)c2ccccc2)cc1 [Example 108]
10,2,"Cc1oc(-c2ccc(C(F)(F)F)cc2)nc1COc1ccc(CN(CC(=O)O)S(=O)(=O)N(C)c2ccccc2)cc1 [Example 47, [N—[(N-methyl-N-phenyl)amino]sulfonyl-N-[4-[[2-(4-trifluoromethylphenyl)-5-methyloxazol-4-yl]methoxy]benzyl]amino]acetic acid]"
11,2,"Cc1ccc(-c2nc(CCOc3ccc(CN(CC(=O)O)S(=O)(=O)N(C)c4ccc(Cl)cc4)cc3)c(C)o2)cc1 [Example 110, [N—[[N-methyl-N-(4-chlorophenyl)]amino]sulfonyl-N-[4-[2-[2-(4-methylphenyl)-5-methyloxazol-4-yl]ethoxy]benzyl]amino]acetic acid]"
12,2,"Cc1ccc(-c2nc(CCOc3ccc(CN(CC(=O)O)S(=O)(=O)NC(C)(C)C)cc3)c(C)o2)cc1 [Example 100, [N—(N-t-butylamino)sulfonyl-N-[4-[2-[2-(4-methylphenyl)-5-methyloxazol-4-yl]ethoxy]benzyl]amino]acetic acid]"
13,2,"Cc1oc(-c2cccs2)nc1COc1ccc(CN(CC(=O)O)S(=O)(=O)N(C)c2ccccc2)cc1 [Example 48, [N—[(N-methyl-N-phenyl)amino]sulfonyl-N-[4-[[2-(thiophen-2-yl)-5-methyloxazol-4-yl]methoxy]benzyl]amino]acetic acid]"
14,3,"Cc1ccc(-c2nc(COc3cccc(CN(CC(=O)O)S(=O)(=O)N4CCc5ccccc54)c3)c(C)o2)cc1 [Example 31, [N-(indolinyl)sulfonyl-N-[3-[[2-(4-methylphenyl)-5-methyloxazol-4-yl]methoxy]benzyl]amino]acetic acid]"
15,2,"Cc1oc(-c2cccs2)nc1CCOc1cccc(CN(CC(=O)O)S(=O)(=O)N(C)C)c1 [Example 72, [N—(N,N-dimethylamino)sulfonyl-N-[3-[2-[2-(thiophen-2-yl)-5-methyloxazol-4-yl]ethoxy]benzyl]amino]acetic acid]"
16,2,"Cc1oc(-c2ccc(C(F)(F)F)cc2)nc1COc1cccc(CN(CC(=O)O)S(=O)(=O)N2CCc3ccccc32)c1 [Example 32, [N-(indolinyl)sulfonyl-N-[3-[[2-(4-trifluoromethylphenyl)-5-methyloxazol-4-yl]methoxy]benzyl]amino]acetic acid]"
17,3,"Cc1oc(-c2ccc(C(F)(F)F)cc2)nc1COc1ccc(CN(CC(=O)O)S(=O)(=O)N2CCCc3ccccc32)cc1 [Example 59, [N-(1,2,3,4-tetrahydroquinolinyl)sulfonyl-N-[4-[[2-(4-trifluoromethylphenyl)-5-methyloxazol-4-yl]methoxy]benzyl]amino]acetic acid]"
18,2,"Cc1oc(-c2ccc(C(F)(F)F)cc2)nc1COc1cccc(CN(CC(=O)O)S(=O)(=O)N2CCCc3ccccc32)c1 [Example 36, [N-(1,2,3,4-tetraquinolinyl)sulfonyl-N-[3-[[2-(4-trifluoromethylphenyl)-5-methyloxazol-4-yl]methoxy]benzyl]amino]acetic acid]"
19,2,"Cc1ccc(-c2nc(COc3ccc(CN(CC(=O)O)S(=O)(=O)N4CCc5ccccc54)cc3)c(C)o2)cc1 [Example 54, [N-(indolinyl)sulfonyl-N-[4-[[2-(4-methylphenyl)-5-methyloxazol-4-yl]methoxy]benzyl]amino]acetic acid]"
20,3,"Cc1ccc(-c2nc(COc3ccc(CN(CC(=O)O)S(=O)(=O)N4CCOCC4)cc3)c(C)o2)cc1 [Example 44, [N-(morpholinyl)sulfonyl-N-[4-[[2-(4-methylphenyl)-5-methyloxazol-4-yl]methoxy]benzyl]amino]acetic acid]"
21,2,"Cc1oc(-c2ccccc2)nc1CCOc1cccc(CN(CC(=O)O)S(=O)(=O)N(C)C)c1 [Example 61, [N—(N,N-dimethylamino)sulfonyl-N-[3-[2-(2-phenyl-5-methyloxazol-4-yl)ethoxy]benzyl]amino]acetic acid]"
22,1,"Cc1ccc(-c2nc(CCOc3cccc(CN(CC(=O)O)S(=O)(=O)N4CCCC4)c3)c(C)o2)cc1 [Example 84, [N-(pyrrolidinyl)sulfonyl-N-[3-[2-[2-(4-methylphenyl)-5-methyloxazol-4-yl]ethoxy]benzyl]amino]acetic acid]"

# Biological target: T1, human PPAR α
# Test: Exogeneous PPAR α agonist assay (GAL4 DNA binding domain/PPAR α ligand binding domain, luciferase) in HepG2 cells
# Type: cell-based
# Details: 25 μM compound, 48 hours, luciferase activity increase relative to the control
# Description: as §1, §2, §3, §4
row,Activity at 25 μM Step 1 HepG2 cell,Structure (SMILES)
1,22,"Cc1ccc(-c2nc(COc3cccc(CN([C@H](C(=O)O)C(C)C)S(=O)(=O)N(C)C)c3)c(C)o2)cc1 [Example 125, (S)-3-methyl-2-[N—(N,N-dimethylamino)sulfonyl-N-[3-[(5-methyl-2-p-tolyloxazol-4-yl)methoxy]benzyl]amino]butyric acid]"
2,26,"Cc1oc(-c2ccc(C(F)(F)F)cc2)nc1CCOc1cccc(CN(CC(=O)O)S(=O)(=O)N(C)c2cccc(F)c2)c1 [Example 82, [N—[N-(3-fluorophenyl)-N-methylamino]sulfonyl-N-[3-[2-[2-(4-trifluoromethylphenyl)-5-methyloxazol-4-yl]ethoxy]benzyl]amino]acetic acid]"
3,45,"CCN(CC)S(=O)(=O)N(CC(=O)O)Cc1ccc(OCCc2nc(-c3ccc(C)cc3)oc2C)cc1 [Example 101, [N—(N,N-diethylamino)sulfonyl-N-[4-[2-[2-(4-methylphenyl)-5-methyloxazol-4-yl]ethoxy]benzyl]amino]acetic acid]"
4,50,"CCN(CC)S(=O)(=O)N(CC(=O)O)Cc1cccc(OCCc2nc(-c3ccc(C(F)(F)F)cc3)oc2C)c1 [Example 67, [N—(N,N-diethylamino)sulfonyl-N-[3-[2-[2-(4-trifluoromethylphenyl)-5-methyloxazol-4-yl]ethoxy]benzyl]amino]acetic acid]"
